Experimental data: patent US8609703B2, “Modulators of ATP-binding cassette transporters” (Vertex Pharmaceuticals Incorporated, priority 2005, dated 2013)

Biological target: T1, ΔF508-CFTR (Homo sapiens, UniProt P13569, DEL508-508)
T1 construct: expressed in transfected cells
Test: EC50 and relative efficacy as modulators of ΔF508-CFTR (membrane potential optical assay)
Format: cell-based
Details: for % Activity: relative efficacy
From the text: I) Membrane Potential Optical Methods for Assaying ΔF508-CFTR Modulation Properties of Compounds
The optical membrane potential assay utilized voltage-sensitive FRET sensors described by Gonzalez and Tsien (See., Gonzalez, J. E. and R. Y. Tsien (1995) “Voltage sensing by fluorescence resonance energy transfer in single cells” Biophys J 69(4): 1272-80, and Gonzalez, J. E. and R. Y. Tsien (1997) “Improved indicators of cell membrane potential that use fluorescence resonance energy transfer” Chem Biol 4(4): 269-77) in combination with instrumentation for measuring fluorescence changes such as the Voltage/Ion Probe Reader (VIPR) (See Gonzalez, J. E., K. Oades, et al. (1999) “Cell-based assays and instrumentation for screening ion-channel targets” Drug Discov Today 4(9): 431-439).
These voltage sensitive assays are based on the change in fluorescence resonant energy transfer (FRET) between the membrane-soluble, voltage-sensitive dye, DiSBAC2(3), and a fluorescent phospholipid, CC2-DMPE, which is attached to the outer leaflet of the plasma membrane and acts as a FRET donor. Changes in membrane potential (Vm) cause the negatively charged DiSBAC2(3) to redistribute across the plasma membrane and the amount of energy transfer from CC2-DMPE changes accordingly. The changes in fluorescence emission were monitored using VIPR which is an integrated liquid handler and fluorescent detector designed to conduct cell-based screens in 96- or 384-well microtiter plates.
To identify small molecules that correct the trafficking defect associated with ΔF508-CFTR; a single-addition HTS assay format was developed. The cells were incubated in serum-free medium for 16 hrs at 37° C. in the presence or absence (negative control) of test compound. As a positive control, cells plated in 384-well plates were incubated for 16 hrs at 27° C. to “temperature-correct” ΔF508-CFTR. The cells were subsequently rinsed 3× with Krebs Ringers solution and loaded with the voltage-sensitive dyes. To activate ΔF508-CFTR, 10 μM forskolin and the CFTR potentiator, genistein (20 μM), were added along with Cl^−-free medium to each well. The addition of Cl^−-free medium promoted Cl^− efflux in response to LF508-CFTR activation and the resulting membrane depolarization was optically monitored using the FRET-based voltage-sensor dyes.
To identify potentiators of ΔF508-CFTR, a double-addition HTS assay format was developed. During the first addition, a Cl^−-free medium with or without test compound was added to each well. After 22 sec, a second addition of Cl^−-free medium containing 2-10 μM forskolin was added to activate ΔF508-CFTR. The extracellular Cl^− concentration following both additions was 28 mM, which promoted Cl^− efflux in response to ΔF508-CFTR activation and the resulting membrane depolarization was optically monitored using the FRET-based voltage-sensor dyes.
NIH3T3 mouse fibroblasts stably expressing ΔF508-CFTR are used for optical measurements of membrane potential. The cells are maintained at 37° C. in 5% CO2 and 90% humidity in Dulbecco's modified Eagle's medium supplemented with 2 mM glutamine, 10% fetal bovine serum, 1×NEAA, (3-ME, 1× pen/strep, and 25 mM HEPES in 175 cm^2 culture flasks. For all optical assays, the cells were seeded at 30,000/well in 384-well matrigel-coated plates and cultured for 2 hrs at 37° C. before culturing at 27° C. for 24 hrs. for the potentiator assay. For the correction assays, the cells are cultured at 27° C. or 37° C. with and without compounds for 16-24 hoursB) Electrophysiological Assays for assaying ΔF508-CFTR modulation properties of compounds
Compounds of the invention are useful as modulators of ATP binding cassette transporters. Table 3 below illustrates the EC50 and relative efficacy of certain embodiments in Table 1.

T1 sequence (P13569 with tags, fused parts or gaps DEL508-508): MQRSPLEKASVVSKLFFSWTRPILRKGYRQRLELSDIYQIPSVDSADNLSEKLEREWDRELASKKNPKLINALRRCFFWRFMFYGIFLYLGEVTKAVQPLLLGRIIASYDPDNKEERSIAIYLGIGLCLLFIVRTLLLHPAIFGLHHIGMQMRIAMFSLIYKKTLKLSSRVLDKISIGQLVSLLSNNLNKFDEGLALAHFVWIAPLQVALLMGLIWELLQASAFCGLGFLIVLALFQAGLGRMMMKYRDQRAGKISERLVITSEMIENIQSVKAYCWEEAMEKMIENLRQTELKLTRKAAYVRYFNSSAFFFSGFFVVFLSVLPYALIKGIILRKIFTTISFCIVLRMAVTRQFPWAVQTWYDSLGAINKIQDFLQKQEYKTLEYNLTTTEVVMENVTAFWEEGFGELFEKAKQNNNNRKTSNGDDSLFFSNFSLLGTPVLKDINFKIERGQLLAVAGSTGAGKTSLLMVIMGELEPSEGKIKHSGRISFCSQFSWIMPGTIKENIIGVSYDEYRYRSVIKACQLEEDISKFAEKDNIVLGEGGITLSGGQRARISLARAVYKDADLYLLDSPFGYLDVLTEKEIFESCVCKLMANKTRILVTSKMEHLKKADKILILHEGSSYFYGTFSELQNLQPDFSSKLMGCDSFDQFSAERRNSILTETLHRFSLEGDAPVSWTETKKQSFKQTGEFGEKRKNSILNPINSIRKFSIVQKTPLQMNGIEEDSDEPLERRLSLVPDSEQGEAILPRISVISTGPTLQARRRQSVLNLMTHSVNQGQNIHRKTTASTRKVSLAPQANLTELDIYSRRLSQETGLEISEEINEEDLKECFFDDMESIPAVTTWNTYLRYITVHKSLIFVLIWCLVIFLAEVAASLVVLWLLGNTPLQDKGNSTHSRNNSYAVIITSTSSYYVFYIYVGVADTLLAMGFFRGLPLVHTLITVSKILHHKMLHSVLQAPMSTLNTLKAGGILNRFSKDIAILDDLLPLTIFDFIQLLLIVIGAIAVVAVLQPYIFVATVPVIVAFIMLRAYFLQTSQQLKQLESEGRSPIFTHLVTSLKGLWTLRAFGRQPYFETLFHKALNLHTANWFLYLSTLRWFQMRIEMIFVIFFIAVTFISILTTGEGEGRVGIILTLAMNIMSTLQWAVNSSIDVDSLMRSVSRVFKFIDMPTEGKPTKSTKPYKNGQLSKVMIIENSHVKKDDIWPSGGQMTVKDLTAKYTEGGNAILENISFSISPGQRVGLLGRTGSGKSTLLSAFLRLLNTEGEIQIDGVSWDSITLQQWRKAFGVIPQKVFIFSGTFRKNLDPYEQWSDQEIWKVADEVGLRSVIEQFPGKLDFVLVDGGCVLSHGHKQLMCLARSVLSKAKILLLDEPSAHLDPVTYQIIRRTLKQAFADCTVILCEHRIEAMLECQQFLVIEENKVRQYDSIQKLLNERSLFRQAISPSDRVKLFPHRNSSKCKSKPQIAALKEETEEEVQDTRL

SMILES	EC50 [nM]	% Activity
O=C(Nc1ccc(F)cc1)C(=O)c1c[nH]c2ccc(Br)cc12 [Cmpd 1]	< 1000	+ (“+” means <25%)
O=C(Nc1ccc(N2CCN(C(c3ccccc3)c3ccccc3)CC2)cc1)C(=O)c1c[nH]c2ccccc12 [Cmpd 2]	1000 to 5000	+ (“+” means <25%)
O=C(Nc1ccc2cc[nH]c2c1)C(=O)c1c[nH]c2ccccc12 [Cmpd 4]	< 1000	++ (“++” means between 25% to 100%)
CC(C)(C)c1ccc(NC(=O)C(=O)c2c[nH]c3ccccc23)cc1 [Cmpd 7]	< 1000	++ (“++” means between 25% to 100%)
O=C(Nc1ccccc1-c1ccccc1)C(=O)c1c[nH]c2ccccc12 [Cmpd 8]	< 1000	++ (“++” means between 25% to 100%)
O=C(Nc1ccccc1)C(=O)c1c[nH]c2ccccc12 [Cmpd 9]	1000 to 5000	++ (“++” means between 25% to 100%)
O=C(Nc1cccc(C(F)(F)F)n1)C(=O)c1c[nH]c2ccccc12 [Cmpd 10]	< 1000	++ (“++” means between 25% to 100%)
Cc1ccccc1Oc1ccccc1NC(=O)C(=O)c1c[nH]c2ccccc12 [Cmpd 11]	< 1000	++ (“++” means between 25% to 100%)
O=C(Nc1ccccc1Oc1ccc(Cl)cc1Cl)C(=O)c1c[nH]c2ccccc12 [Cmpd 14]	< 1000	++ (“++” means between 25% to 100%)
Cn1cc(C(=O)C(=O)Nc2ccccc2)c2ccccc21 [Cmpd 16]	> 5000	++ (“++” means between 25% to 100%)
Cn1cc(C(=O)C(=O)Nc2ccccc2-c2ccccc2)c2ccccc21 [Cmpd 17]	> 5000	+ (“+” means <25%)
Nc1cc(NC(=O)C(=O)c2c[nH]c3ccccc23)cc(C(F)(F)F)c1 [Cmpd 19]	1000 to 5000	++ (“++” means between 25% to 100%)
CN1Cc2c(NC(=O)C(=O)c3c[nH]c4ccccc34)cccc2C(c2ccccc2)C1 (stereo not shown) [Cmpd 20]	< 1000	++ (“++” means between 25% to 100%)
Cc1ccc(C)n1-c1ccccc1NC(=O)C(=O)c1c[nH]c2ccccc12 [Cmpd 21]	1000 to 5000	++ (“++” means between 25% to 100%)
O=C(Nc1ccccc1OC(F)F)C(=O)c1c[nH]c2ccccc12 [Cmpd 22]	1000 to 5000	++ (“++” means between 25% to 100%)
CC(C)(C)c1cc(C(C)(C)C)c(NC(=O)C(=O)c2c[nH]c3ccccc23)cc1O [Cmpd 24]	< 1000	++ (“++” means between 25% to 100%)
CC(C)(C)c1cc2cc[nH]c2cc1NC(=O)C(=O)c1c[nH]c2ccccc12 [Cmpd 25]	< 1000	++ (“++” means between 25% to 100%)
CC(C)(C)c1ccccc1NC(=O)C(=O)c1c[nH]c2ccccc12 [Cmpd 26]	< 1000	++ (“++” means between 25% to 100%)

Now from value to molecule:

EC50 [nM]	% Activity	SMILES
< 1000	++ (“++” means between 25% to 100%)	CCc1ccccc1NC(=O)C(=O)c1c[nH]c2ccccc12 [Cmpd 3, N-(2-Ethyl-phenyl)-2-(1H-indol-3-yl)-2-oxo-acetamide]
< 1000	++ (“++” means between 25% to 100%)	CCCc1ccccc1NC(=O)C(=O)c1c[nH]c2ccccc12 [Cmpd 5]
< 1000	++ (“++” means between 25% to 100%)	CC(C)c1ccccc1NC(=O)C(=O)c1c[nH]c2ccccc12 [Cmpd 6]
< 1000	++ (“++” means between 25% to 100%)	C=C(C)c1ccccc1NC(=O)C(=O)c1c[nH]c2ccccc12 [Cmpd 12]
< 1000	++ (“++” means between 25% to 100%)	CCCCc1ccccc1NC(=O)C(=O)c1c[nH]c2ccccc12 [Cmpd 13]
< 1000	++ (“++” means between 25% to 100%)	O=C(Nc1ccccc1CN1CCCCC1)C(=O)c1c[nH]c2ccccc12 [Cmpd 15]
1000 to 5000	++ (“++” means between 25% to 100%)	O=C(Nc1ccccc1CN1CCCC1)C(=O)c1c[nH]c2ccccc12 [Cmpd 18]
< 1000	++ (“++” means between 25% to 100%)	O=C(Nc1ccccc1F)C(=O)c1c[nH]c2ccccc12 [Cmpd 23]
